{
  "source": "BigSolDB 2.1",
  "data": [
    {"compound": "C[C@H]1[C@H](C)CC[C@]2(C(=O)O)CC[C@]3(C)C(=CC[C@@H]4[C@@]5(C)CC[C@H](O)C(C)(C)[C@@H]5CC[C@]43C)[C@H]12", "values": [
      {"measurement": "solubility (mole fraction)", "setting": "in MIBK, 278.2 K", "result": 0.00094},
      {"measurement": "solubility (mole fraction)", "setting": "in MIBK, 283.2 K", "result": 0.00104},
      {"measurement": "solubility (mole fraction)", "setting": "in MIBK, 288.2 K", "result": 0.00106},
      {"measurement": "solubility (mole fraction)", "setting": "in MIBK, 293.2 K", "result": 0.00109},
      {"measurement": "solubility (mole fraction)", "setting": "in MIBK, 298.2 K", "result": 0.00127},
      {"measurement": "solubility (mole fraction)", "setting": "in MIBK, 303.2 K", "result": 0.00128},
      {"measurement": "solubility (mole fraction)", "setting": "in MIBK, 308.2 K", "result": 0.0015},
      {"measurement": "solubility (mole fraction)", "setting": "in MIBK, 313.2 K", "result": 0.00169},
      {"measurement": "solubility (mole fraction)", "setting": "in MIBK, 318.2 K", "result": 0.00184},
      {"measurement": "solubility (mole fraction)", "setting": "in MTBE, 278.2 K", "result": 0.00167},
      {"measurement": "solubility (mole fraction)", "setting": "in MTBE, 283.2 K", "result": 0.00175},
      {"measurement": "solubility (mole fraction)", "setting": "in MTBE, 288.2 K", "result": 0.0021},
      {"measurement": "solubility (mole fraction)", "setting": "in MTBE, 293.2 K", "result": 0.00248},
      {"measurement": "solubility (mole fraction)", "setting": "in MTBE, 298.2 K", "result": 0.00288},
      {"measurement": "solubility (mole fraction)", "setting": "in MTBE, 303.2 K", "result": 0.00305},
      {"measurement": "solubility (mole fraction)", "setting": "in MTBE, 308.2 K", "result": 0.00311},
      {"measurement": "solubility (mole fraction)", "setting": "in MTBE, 313.2 K", "result": 0.00315},
      {"measurement": "solubility (mole fraction)", "setting": "in MTBE, 318.2 K", "result": 0.00338},
      {"measurement": "solubility (mole fraction)", "setting": "in n-butanol, 278.2 K", "result": 0.00153},
      {"measurement": "solubility (mole fraction)", "setting": "in n-butanol, 283.2 K", "result": 0.00168},
      {"measurement": "solubility (mole fraction)", "setting": "in n-butanol, 288.2 K", "result": 0.00226},
      {"measurement": "solubility (mole fraction)", "setting": "in n-butanol, 293.2 K", "result": 0.00266},
      {"measurement": "solubility (mole fraction)", "setting": "in n-butanol, 298.2 K", "result": 0.00334},
      {"measurement": "solubility (mole fraction)", "setting": "in n-butanol, 303.2 K", "result": 0.00387},
      {"measurement": "solubility (mole fraction)", "setting": "in n-butanol, 308.2 K", "result": 0.00411},
      {"measurement": "solubility (mole fraction)", "setting": "in n-butanol, 313.2 K", "result": 0.00466},
      {"measurement": "solubility (mole fraction)", "setting": "in n-butanol, 318.2 K", "result": 0.00504}
    ]}
  ]
}
